Test results: article PMC9387934, “Randomized single oral dose phase 1 study of safety, tolerability, and pharmacokinetics of Iminosugar UV-4 Hydrochloride (UV-4B) in healthy subjects” (PLoS Neglected Tropical Diseases, 2022)
Where a name gives a salt, the structure may show the parent alone.

Test: Phase 1a single ascending dose study: UV-4 in pooled urine, urinary recovery and renal clearance
Assay type: in vivo, human
Conditions: urine; for Cumulative Amount Ae(0-last): corresponds to Ae(0-48); for Cumulative Percent fe(0-last): corresponds to fe(0-48)
Description: Serial blood samples were collected at pre-dose (0 hour) and 0.5, 1, 1.5, 2, 2.5, 3, 4, 6, 9, 12, 18, 24, 36, and 48 hours post-dose for assessment of UV-4 concentrations in plasma. Pooled urine samples were collected at pre-dose (-12 to 0 hour) and from 0 to 6, 6 to 12, 12 to 24, and 24 to 48 hours post-dose for assessment of UV-4 concentrations in urine. Plasma and urine concentrations of UV-4 were determined by means of validated, sensitive, and specific high-performance liquid chromatography/tandem mass spectrometric (LC-MS/MS) assays. UV-4 plasma and urine concentrations and PK parameters were listed and summarized by dose, as appropriate. Only the 48 subjects who received active investigational product were included in the PK analysis population.
8.2.3 Specimen Preparation, Handling, and Shipping
8.2.3.1 Instructions for Specimen Preparation, Handling, and Storage
The collected PK blood samples (2 mL) will be placed on ice after blood draw, and within 1 hour centrifuged at room temperature at approximately 3000 revolutions per minute for 15 minutes. Plasma will then be harvested and split into 4 aliquots of approximately 250 μ L and stored frozen at -20°C until shipped.
Urine samples (approximately 10 mL) for determination of UV-4 concentrations in urine will be taken from the total volume provided during each collection period. The total volume of each urine collection will be recorded along with the start/stop time for each urine collection interval.
Analysis of plasma and urine for UV-4 will be performed by the qualified bioanalytical laboratory, Quintiles Bioservices, Inc., Ithaca, New York 14950. Instructions for the proper preparation, handling, storage and shipping of specimens will be provided separately in a study-specific laboratory manual (i.e., Biopacket).
8.2.3.2 Specimen Shipment […]
The following single-dose urine PK parameters will be estimated from the UV-4 urine concentration-time data collected, as appropriate:
Ae Amount of UV-4 excreted in urine unchanged, calculated for each collection interval and cumulatively across intervals fe Fraction of UV-4 excreted in urine unchanged, calculated for each collection interval and cumulatively across intervals […]
Additional UV-4 PK parameters may be calculated at the discretion of the […]
Plasma concentrations and plasma and urine PK parameters will be summarized by treatment using descriptive statistics, as appropriate. Figures for the arithmetic mean (and SD) concentration-time data will be presented for all doses on both a linear and semi-logarithmic scale. Individual concentration-time data will be graphically presented on linear and semi-logarithmic scales. Scatter plots of individual and geometric mean PK parameters versus dose will be presented. Additional graphical presentations of PK data may be added at the discretion of the PK analyst.
Dose proportionality of Cmax, AUC(0-last), and AUC(0-inf) will be assessed graphically and statistically using the power model approach with the logarithm of PK parameters AUC(0-inf) and Cmax as the dependent variables and the logarithm of the dose as the independent variable: ([AUC(0-inf), AUC(0-last), or Cmax]=α *doseβ).
11.4.7 Deviation from Original Analysis Plan
Deviations from the formal statistical analysis plan will be noted in the final Clinical Study

[1] = Cohort 4, 90 mg single oral dose, Median
[2] = Cohort 5, 180 mg single oral dose, Ar Mean
[3] = Cohort 5, 180 mg single oral dose, Median
[4] = Cohort 6, 360 mg single oral dose, Ar Mean
[5] = Cohort 6, 360 mg single oral dose, Median
[6] = Cohort 7, 720 mg single oral dose, Ar Mean
[7] = Cohort 7, 720 mg single oral dose, Median
[8] = Cohort 8, 1000 mg single oral dose, Ar Mean
[9] = Cohort 8, 1000 mg single oral dose, Median

SMILES: COCCCCCCCCCN1C[C@H](O)[C@@H](O)[C@H](O)[C@H]1CO [UV-4B, N-(9’-methoxynonyl)-1-deoxynojirimycin hydrochloride]
- By-Interval Amount Ae(12-24) [1]: 4.01 mg
- By-Interval Amount Ae(24-48) [1]: 1.50 mg
- By-Interval Percent fe(0-6) [1]: 43.6%
- By-Interval Percent fe(6-12) [1]: 7.07%
- By-Interval Percent fe(12-24) [1]: 4.46%
- By-Interval Percent fe(24-48) [1]: 1.66%
- Cumulative Amount Ae(0-12) [1]: 44.2 mg
- Cumulative Amount Ae(0-24) [1]: 47.8 mg
- Cumulative Percent fe(0-12) [1]: 49.1%
- Cumulative Percent fe(0-24) [1]: 53.1%
- Cumulative Amount Ae(0-last) [1]: 49.7 mg
- Cumulative Percent fe(0-last) [1]: 55.3%
- By-Interval Amount Ae(0-6) [2]: 77.5 mg
- By-Interval Amount Ae(6-12) [2]: 12.1 mg
- By-Interval Amount Ae(12-24) [2]: 6.06 mg
- By-Interval Amount Ae(24-48) [2]: 2.43 mg
- By-Interval Percent fe(0-6) [2]: 43.0%
- By-Interval Percent fe(6-12) [2]: 6.74%
- By-Interval Percent fe(12-24) [2]: 3.37%
- By-Interval Percent fe(24-48) [2]: 1.35%
- Cumulative Amount Ae(0-12) [2]: 89.6 mg
- Cumulative Amount Ae(0-24) [2]: 95.7 mg
- Cumulative Percent fe(0-12) [2]: 49.8%
- Cumulative Percent fe(0-24) [2]: 53.1%
- Cumulative Amount Ae(0-last) [2]: 97.9 mg
- Cumulative Percent fe(0-last) [2]: 54.5%
- By-Interval Amount Ae(0-6) [3]: 77.7 mg
- By-Interval Amount Ae(6-12) [3]: 12.1 mg
- By-Interval Amount Ae(12-24) [3]: 5.76 mg
- By-Interval Amount Ae(24-48) [3]: 2.20 mg
- By-Interval Percent fe(0-6) [3]: 43.2%
- By-Interval Percent fe(6-12) [3]: 6.72%
- By-Interval Percent fe(12-24) [3]: 3.20%
- By-Interval Percent fe(24-48) [3]: 1.22%
- Cumulative Amount Ae(0-12) [3]: 89.5 mg
- Cumulative Amount Ae(0-24) [3]: 96.8 mg
- Cumulative Percent fe(0-12) [3]: 49.7%
- Cumulative Percent fe(0-24) [3]: 53.8%
- Cumulative Amount Ae(0-last) [3]: 99.8 mg
- Cumulative Percent fe(0-last) [3]: 55.6%
- By-Interval Amount Ae(0-6) [4]: 159 mg
- By-Interval Amount Ae(6-12) [4]: 19.1 mg
- By-Interval Amount Ae(12-24) [4]: 7.09 mg
- By-Interval Amount Ae(24-48) [4]: 2.83 mg
- By-Interval Percent fe(0-6) [4]: 44.2%
- By-Interval Percent fe(6-12) [4]: 5.32%
- By-Interval Percent fe(12-24) [4]: 1.97%
- By-Interval Percent fe(24-48) [4]: 0.787%
- Cumulative Amount Ae(0-12) [4]: 178 mg
- Cumulative Amount Ae(0-24) [4]: 185 mg
- Cumulative Percent fe(0-12) [4]: 49.5%
- Cumulative Percent fe(0-24) [4]: 51.5%
- Cumulative Amount Ae(0-last) [4]: 188 mg
- Cumulative Percent fe(0-last) [4]: 52.3%
- By-Interval Amount Ae(0-6) [5]: 153 mg
- By-Interval Amount Ae(6-12) [5]: 20.0 mg
- By-Interval Amount Ae(12-24) [5]: 6.73 mg
- By-Interval Amount Ae(24-48) [5]: 2.89 mg
- By-Interval Percent fe(0-6) [5]: 42.4%
- By-Interval Percent fe(6-12) [5]: 5.55%
- By-Interval Percent fe(12-24) [5]: 1.87%
- By-Interval Percent fe(24-48) [5]: 0.803%
- Cumulative Amount Ae(0-12) [5]: 172 mg
- Cumulative Amount Ae(0-24) [5]: 178 mg
- Cumulative Percent fe(0-12) [5]: 47.8%
- Cumulative Percent fe(0-24) [5]: 49.5%
- Cumulative Amount Ae(0-last) [5]: 182 mg
- Cumulative Percent fe(0-last) [5]: 50.4%
- By-Interval Amount Ae(0-6) [6]: 301 mg
- By-Interval Amount Ae(6-12) [6]: 42.5 mg
- By-Interval Amount Ae(12-24) [6]: 11.7 mg
- By-Interval Amount Ae(24-48) [6]: 4.09 mg
- By-Interval Percent fe(0-6) [6]: 41.8%
- By-Interval Percent fe(6-12) [6]: 5.90%
- By-Interval Percent fe(12-24) [6]: 1.63%
- By-Interval Percent fe(24-48) [6]: 0.569%
- Cumulative Amount Ae(0-12) [6]: 344 mg
- Cumulative Amount Ae(0-24) [6]: 355 mg
- Cumulative Percent fe(0-12) [6]: 47.7%
- Cumulative Percent fe(0-24) [6]: 49.4%
- Cumulative Amount Ae(0-last) [6]: 360 mg
- Cumulative Percent fe(0-last) [6]: 49.9%
- By-Interval Amount Ae(0-6) [7]: 285 mg
- By-Interval Amount Ae(6-12) [7]: 45.7 mg
- By-Interval Amount Ae(12-24) [7]: 12.1 mg
- By-Interval Amount Ae(24-48) [7]: 4.53 mg
- By-Interval Percent fe(0-6) [7]: 39.6%
- By-Interval Percent fe(6-12) [7]: 6.34%
- By-Interval Percent fe(12-24) [7]: 1.68%
- By-Interval Percent fe(24-48) [7]: 0.630%
- Cumulative Amount Ae(0-12) [7]: 332 mg
- Cumulative Amount Ae(0-24) [7]: 345 mg
- Cumulative Percent fe(0-12) [7]: 46.1%
- Cumulative Percent fe(0-24) [7]: 47.9%
- Cumulative Amount Ae(0-last) [7]: 350 mg
- Cumulative Percent fe(0-last) [7]: 48.5%
- By-Interval Amount Ae(0-6) [8]: 428 mg
- By-Interval Amount Ae(6-12) [8]: 53.7 mg
- By-Interval Amount Ae(12-24) [8]: 16.4 mg
- By-Interval Amount Ae(24-48) [8]: 5.21 mg
- By-Interval Percent fe(12-24) [8]: 1.64%
- Cumulative Amount Ae(0-12) [8]: 482 mg
- Cumulative Amount Ae(0-24) [8]: 498 mg
- Cumulative Amount Ae(0-last) [8]: 504 mg
- By-Interval Amount Ae(0-6) [9]: 421 mg
- By-Interval Amount Ae(6-12) [9]: 56.1 mg
- By-Interval Amount Ae(12-24) [9]: 16.6 mg
- By-Interval Amount Ae(24-48) [9]: 5.03 mg
- Cumulative Amount Ae(0-12) [9]: 475 mg
- Cumulative Amount Ae(0-24) [9]: 496 mg
- Cumulative Amount Ae(0-last) [9]: 501 mg
